The subject of one test is STZ-diabetic mice. The experiment in a line: Fasting blood glucose of diabetic mice during six days of treatment. The test is classed as in vivo. The conditions noted are these: for activity in controlling the rise of blood glucose levels in streptozotocin diabetic animals (in words) / control of fasting blood sugar compared with sitagliptin and the other compounds (in words): 50 mg/kg/day; for activity in controlling the rise of blood glucose levels in streptozotocin diabetic animals (in words): 6-day interval; for control of fasting blood sugar compared with sitagliptin and the other compounds (in words): 6 days; for Blood glucose level, fasting: 50 mg/kg/day oral, diabetic mice, mean ± SEM. An excerpt: Our objective was to test the efficacy of the synthesized compounds for their potential to reduce blood glucose in STZ-diabetic mice. The synthesized compounds Nos. 128, 129, 130, 131,140, 142 were expected to act through the inhibition of the DPP-IV enzyme, which is responsible for the degradation of the entero-peptide GLP-I. In turn, GLP-I increases insulin and decreases glucagon release from the pancreatic islets (β and α-cells respectively). So this part of the project was designed to study the effect of the synthesized gliptin simulated compounds on blood glucose levels and their efficacy to increase glucose utilization in diabetic mice through: • a. The effect of the tested compounds in a dose of 50 mg/kg/day on fasting blood glucose blood levels of diabetic mice during six days of treatment. • b. Oral glucose tolerance test (OGTT) through oral glucose loading, 2 h after treatment with single oral dose (50 mg/kg) of the tested compounds in 14 h overnight fasted mice. • c. OGTT through oral glucose loading, 2 h after treatment with the 6th oral dose (50 mg/kg) of the tested compounds in 14 h overnight fasted mice. • d. The effect of the pretreatment with the tested compounds at an oral dose of 50 mg/kg on blood glucose levels, 3 h before and 3 h after meal feeding (feeding for one hour only, then food was removed immediately) in 14 h overnight-fasted diabetic mice.
Blood samples were collected from the tail vein and the blood glucose level was determined. Curves of blood glucose levels (mg/dL) versus the time intervals (min) were constructed and the area under the curves (AUCs) were calculated by the method of calculation embedded in GraphPad Prism® v. 5.0 (GraphPad Software, San Diego, Calif., USA). AUCs of the curves of the different groups were compared and tested for significance against control groups.
All data are presented as means±SEM. Statistical significance was evaluated by analysis of variance (ANOVA) followed by Tukey-Kramer's post hoc test for multiple comparisons. The “t” of the paired data was used to test the significance of the values of the fasting blood glucose compared to the values before treatment. Statistical significance was accepted at a level of p<0.05.

For the next test, the target named is DPP-IV enzyme (Homo sapiens (Human), UniProt P27487). In words: DPP-IV inhibition assay (Biovision kit, fluorescence). Particulars: read-out: IC50 (DPP4 inhibition). Format: biochemical. On the procedure: Sitagliptin phosphate monohydrate and the different tested compounds were dissolved in dimethyl sulphoxide (DMSO) and diluted with tris buffer (pH 8.0, 50 mM) to achieve the required concentrations. DPP-IV inhibition assay was conducted using a kit purchased from Biovision (Milpitas, Calif., USA). Briefly, DPP-IV enzyme was diluted with tris buffer and pipetted 50 μl into glass mini-cells. Subsequently the 25 μl of tris buffer, sitagliptin phosphate monohydrate or the tested compounds was added and incubated at 37° C. for 20 min protected from light. Finally, a volume of 25 μl of DPP-IV substrate was added into each tube. The fluorescence generated from hydrolysis of the substrate was read at Ex/Em=360/460 nm using Modulus® single tube multimode reader (Promega, USA). Baseline fluorescence was recorded before incubation (R1) and 20 min after incubation (R2). Percentage inhibition was calculated according to the following equation: […] where, ΔRFU=R2−R1 and EC is the enzyme control (enzyme solution without inhibitor) which is considered 100% activity.
DPP-IV enzyme, sequence (P27487 whole entry, species assumed): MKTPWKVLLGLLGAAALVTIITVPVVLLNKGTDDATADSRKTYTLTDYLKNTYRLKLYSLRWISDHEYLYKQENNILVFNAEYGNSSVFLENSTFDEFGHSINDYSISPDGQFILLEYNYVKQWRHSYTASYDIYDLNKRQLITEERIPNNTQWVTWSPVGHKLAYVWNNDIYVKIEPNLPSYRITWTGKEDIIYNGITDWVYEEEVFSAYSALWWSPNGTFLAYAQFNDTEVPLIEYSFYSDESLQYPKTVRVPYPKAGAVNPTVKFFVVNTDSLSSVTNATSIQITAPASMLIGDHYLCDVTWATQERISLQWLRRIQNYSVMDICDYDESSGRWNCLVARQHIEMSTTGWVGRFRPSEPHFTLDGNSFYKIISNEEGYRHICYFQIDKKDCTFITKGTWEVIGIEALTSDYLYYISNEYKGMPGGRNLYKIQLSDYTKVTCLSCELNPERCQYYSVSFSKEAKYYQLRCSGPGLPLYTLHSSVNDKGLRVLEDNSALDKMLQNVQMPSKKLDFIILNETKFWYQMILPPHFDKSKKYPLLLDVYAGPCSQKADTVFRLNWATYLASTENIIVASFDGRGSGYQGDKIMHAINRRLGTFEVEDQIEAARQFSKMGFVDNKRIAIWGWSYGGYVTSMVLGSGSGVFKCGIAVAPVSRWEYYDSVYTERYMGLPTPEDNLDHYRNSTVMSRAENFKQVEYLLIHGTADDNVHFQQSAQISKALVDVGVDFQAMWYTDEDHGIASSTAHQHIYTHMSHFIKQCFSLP
The standard DPP-IV inhibitor drug sitagliptin was employed as positive control. […] Sigmoidal dose-response curves for DPP-IV % inhibition versus log concentrations were plotted using Graphpad prism software, version 5.00 (GraphPad Software, Inc. La Jolla, Calif., USA). The IC50 value corresponds to the concentration of sample needed to inhibit DPP-IV by 50%.

Experimental findings from patent US10894794B1, “Substituted [1,2,4]triazolo[4,3-a]pyrazines as antidiabetics” (King Abdulaziz University, priority 2019, dated 2021) are described below.

In general, IC50 refers to the concentration that inhibits the measured activity by half.

As for `N#Cc1cccc(NC(=O)CN2CCn3c(nnc3C(F)(F)F)C2)c1` [GLP-142], the “activity in controlling the rise of blood glucose levels in streptozotocin diabetic animals (in words)” value (“activity in controlling the rise” below) in the test with STZ-diabetic mice is “significant activity”. Besides, in the test with STZ-diabetic mice, the “control of fasting blood sugar compared with sitagliptin and the other compounds (in words)” value is “comparable to that of sitagliptin”. For the same molecule, the results for the “Blood glucose level, fasting” value in the test on STZ-diabetic mice (Day 1), in the test with STZ-diabetic mice (Day 4) and with STZ-diabetic mice (Day 5) were 230.0 ± 13.769 mg/dL, 188.8 ± 25.784 mg/dL and 205.4 ± 39.315 mg/dL, respectively. Also, the IC50 on DPP-IV enzyme stood at 0.18 nM.

As to `C[C@H](NC(=O)c1cccc(Cl)c1)C(=O)N1CCn2c(nnc2C(F)(F)F)C1` [GLP-130], the “activity in controlling the rise” value in the test on STZ-diabetic mice is on record as “significant activity”. In addition, the “control of fasting blood sugar compared with sitagliptin and the other compounds (in words)” value is “most consistent and extended activities” with STZ-diabetic mice; “comparable to that of sitagliptin” with STZ-diabetic mice (listed as 130). The IC50 on DPP-IV enzyme amounted to 0.21 nM.

Take `O=C(CN1CCn2c(nnc2C(F)(F)F)C1)NC1CCCCC1` [GLP-140]: in the test with STZ-diabetic mice, the “activity in controlling the rise” value is recorded as “significant activity”; the “control of fasting blood sugar compared with sitagliptin and the other compounds (in words)” value is “comparable to that of sitagliptin”. Moreover, the “Blood glucose level, fasting” value in the test with STZ-diabetic mice (Day 1) was 210.0 ± 12.345 mg/dL. The IC50 on DPP-IV enzyme was found to be 1.84 nM.
